Data: patent publication US8536158B2, “Compounds having CRTH2 antagonist activity” (Atopix Therapeutics Limited, priority 2008, dated 2013)

Assays:
[1] = target: CRTH2 receptor (Homo sapiens (Human), UniProt Q9Y5Y4); assay: [3H]PGD2 radioligand binding assay on CHO/CRTH2 cell membranes; conditions: for Ki: [3H]PGD2, CHO/CRTH2 membranes
Procedure: Chinese Hamster Ovary cells were transfected with CRTH2 or DP receptors (CHO/CRTH2 and CHO/DP) and were maintained in culture in a humidified atmosphere at 37° C. (5% CO2) in Minimum Essential Medium (MEM) supplemented with 10% foetal bovine serum, 2 mM glutamine, and 1 mg ml^−1 active G418. The cells were passaged every 2-3 days. For radioligand binding assay, cells were prepared in triple-layer flasks or in 175 cm^2 square flasks (for membrane preparation).
Membranes were prepared either from CHO/CRTH2 and CHO/DP cells, or from platelets (as a source of TP receptors). CHO cells grown to confluency were washed with PBS and detached using a Versene solution (15 ml per flask). When the cells were grown in 175 cm^2 square flask, they were collected by scrapping in PBS. The cell suspensions were centrifuged (1,700 rpm, 10 min, 4° C.) and resuspended in 15 ml of buffer (1×HBSS, supplemented with 10 mM HEPES, pH 7.3). Cell suspensions were then homogenised using an Ultra Turrax at setting 4-6 for 20 s. The homogenate was centrifuged at 1,700 rpm for 10 min and the supernatant was collected and centrifuged at 20,000 rpm for 1 h at 4° C. The resulting pellet was resuspended in buffer and stored at −80° C. in aliquots of […] The protein concentration was determined by the method of Bradford (1976), using bovine serum albumin as standard. The platelets were washed by centrifugation at 600×g for 10 min and resuspended in ice-cold assay buffer (10 mM Tris-HCl, pH 7.4, 5 mM Glucose, 120 mM NaCl, 10 μM indomethacin) and directly centrifuged at 20,000 rpm for 30 min at 4° C. The resulting pellet was treated as described above.
[^3H]PGD2 (160 Ci/mmol) binding experiments were performed on membranes prepared as described above. Assays were performed in a final volume of 100 μl of buffer (1×HBSS/HEPES 10 mM, pH 7.3). Cell membranes (15 μg) were preincubated at room temperature with varying concentration of competing ligand for 15 min. [^3H]PGD2 was then added and the incubation continued for a further one hour at room temperature. The reaction was terminated by the addition of 200 μl ice-cold assay buffer to each well, followed by rapid filtration through Whatman GF/B glass fibre filters using a Unifilter Cell harvester (PerkinElmer Life Sciences) and six washes of 300 μl of ice-cold buffer. The Unifilter plates were dried at room temperature for at least 1 h and the radioactivity retained on the filters was determined on a Beta Trilux counter (PerkinElmer Life Sciences), following addition of 40 μl of Optiphase Hi-Safe 3 (Wallac) liquid scintillation. Non specific binding was defined in the presence of 10 μM unlabelled PGD2. Assays were performed in duplicate.

[2] = system: eosinophils in human whole blood; assay: Human whole blood eosinophil shape change assay (PGD2-induced); type: cell-based; conditions: for IC50: Eosinophil, 10 nM PGD2, human whole blood, read-out: IC50 for effect on 10 nM PGD2-induced eosinophil shape change in human whole blood
Procedure: Compounds 1-3 were assayed for their effect on PGD2 induced eosinophil shape change and were compared with Comparator Compounds A, B and D.
Compounds (1 μl, 200× final concentration) were added directly to 200 μl whole blood, mixed well and incubated for 15 min, 37° C., 5% CO2. After this time, cell shape was fixed by addition of 300 μl Cytofix™ buffer (BD Biosciences), 15 min on ice. 10 ml RBC lysis buffer was added to the fixed cells, incubated 5 min, at room temperature and centrifuged, 300×g for 5 min. Supernatant (containing lysed red cells) was removed and the lysis step was repeated. Leukocytes were resuspended in 250 μl RPMI/10% FCS and shape change analysed by FACS. Eosinophils were gated out based on their autofluorescence and 2000 eosinophil events were counted per sample. Data were analysed in triplicate.

[3] = Microsomal stability; type: in vitro ADME, human; conditions: for Mean Parent remaining (%): 1 x 10^-6 M test compound, human liver microsomes 0.3 mg/ml, mean of two experiments; for unmetabolised in human liver microsomes: text states
Procedure: The percentage of the test compound remaining in the sample after 1 hour was measured in order to determine the rate of metabolism of test compound. The results are shown in Table 3, which gives the results for two experiments and the mean value obtained.

[4] = In vivo pharmacokinetic profile in the dog; conditions: plasma

Chain of CRTH2 receptor (Q9Y5Y4 whole entry): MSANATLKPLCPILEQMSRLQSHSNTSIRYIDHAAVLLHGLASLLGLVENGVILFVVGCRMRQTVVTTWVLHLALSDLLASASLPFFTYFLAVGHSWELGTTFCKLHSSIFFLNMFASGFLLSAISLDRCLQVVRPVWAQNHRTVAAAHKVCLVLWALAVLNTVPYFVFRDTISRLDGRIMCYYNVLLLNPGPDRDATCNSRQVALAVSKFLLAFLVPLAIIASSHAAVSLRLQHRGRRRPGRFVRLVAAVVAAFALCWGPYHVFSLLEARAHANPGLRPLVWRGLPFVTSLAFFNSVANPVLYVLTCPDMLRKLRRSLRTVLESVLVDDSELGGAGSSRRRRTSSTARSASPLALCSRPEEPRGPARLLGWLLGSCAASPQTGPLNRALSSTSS

Row | Compound | Ki [1] | IC50 [2] | Mean Parent remaining (%) [3] | unmetabolised in human liver microsomes [3] | half-life [4] | binding to the CRTH2 receptor (in words) [1] | stability in human microsomes (in words) ([3]; human microsomes) | half-life ([4]; oral) | CRTH2 antagonist potency under physiological conditions (in words) ([2]; eosinophil shape change test, whole blood)
1 | Cc1c(Cc2cccnc2S(=O)(=O)c2ccccc2)c2cc(F)ccc2n1CC(=O)O [Compound 1, (3-{[2-(Benzenesulfonyl)pyridin-3-yl]methyl}-5-fluoro-2-methylindol-1-yl)-acetic acid] | 2 nM | 9 nM | 96% | 96% |  |  |  | 3 h | 
2 | Cc1c(Cc2cccnc2S(=O)(=O)c2ccc(F)cc2)c2cc(F)ccc2n1CC(=O)O [Compound 2, [5-Fluoro-3-({2-[(4-fluorobenzene)sulfonyl]pyridin-3-yl}methyl)-2-methylindol-1-yl]-acetic acid] |  | 2.5 nM | 98% | 98% | 5 h |  |  |  | 
3 | Cc1c(Cc2ccncc2S(=O)(=O)c2ccccc2)c2cc(F)ccc2n1CC(=O)O [Compound B, [3-(3-Benzenesulfonyl-pyridin-4ylmethyl)-5-fluoro-2-methyl-indol-1-yl]-acetic acid] | 1 nM | 34 nM | 69% | 69% |  |  |  |  | not a particularly potent CRTH2 antagonist
4 | Cc1c(Cc2ncccc2S(=O)(=O)c2ccccc2)c2cc(F)ccc2n1CC(=O)O [Compound C, [3-(3-Benzenesulfonyl-pyridin-2-ylmethyl)-5-fluoro-2-methyl-indol-1-yl]-acetic acid] | 979 nM |  | 90% | 90% |  | bind only very weakly |  |  | 
5 | Cc1c(Cc2cccn2S(=O)(=O)c2ccccc2)c2cc(F)ccc2n1CC(=O)O [Compound D, [3-(1-Benzenesulfonyl-1H-pyrrol-2-ylmethyl)-5-fluoro-2-methyl-indol-1-yl]-acetic acid] |  | 8 nM | 24% | 24% |  |  | low stability |  | 

More lines, main results first:

Row | Ki [1] | IC50 [2] | Mean Parent remaining (%) [3] | unmetabolised in human liver microsomes [3] | half-life [4] | binding to the CRTH2 receptor (in words) [1] | stability in human microsomes (in words) ([3]; human microsomes) | Compound | half-life ([4]; oral) | CRTH2 antagonist potency under physiological conditions (in words) ([2]; eosinophil shape change test, whole blood)
6 |  | 10 nM |  |  |  |  |  | Cc1c(Cc2cccnc2S(=O)(=O)c2ccc(Cl)cc2)c2cc(F)ccc2n1CC(=O)O [Compound 3, [3-({2-[(4-Chlorobenzene)sulfonyl]pyridin-3-yl}methyl)-5-fluoro-2-methylindol-1-yl]-acetic acid] |  | 
7 | 7 nM | 8 nM |  |  |  |  |  | Cc1c(Cc2ccc(S(C)(=O)=O)cc2)c2cc(F)ccc2n1CC(=O)O [Compound A, [3-(4-Methylsulfonyl-benzyl)-5-fluoro-2-methyl-indol-1-yl]-acetic acid] | 1 h | 
8 | 258 nM |  |  |  |  | bind only very weakly |  | Cc1c(Cc2cccnc2)c2cc(F)ccc2n1CC(=O)O [Compound E] |  | 
